Measurements reported in US7642270B2, “5-oxo-5,8-dihydro-pyrido-pyrimidine as inhibitors of c-fms kinase” (Janssen Pharmaceutica N.V., priority 2005, dated 2010).

Experiments:
c-fms = c-fms (Homo sapiens, UniProt P07333); assay: c-fms autophosphorylation, fluorescence polarization competition immunoassay; format: biochemical; details: 10 nM c-fms, 1 mM ATP, 5 mM MgCl2, 45 min room temperature; averages of three independent measurements; read-out: c-fms Autophosphorylation IC50
Procedure: Autophosphorylation, Fluorescence Polarization Competition Immunoassay
The assay buffer used was 100 mM 4-(2-hydroxyethyl)piperazine 1-ethanesulfonic acid (HEPES), pH 7.5, 1 mM 1,4-dithio-DL-threitol (DTT), 0.01% (v/v) Tween-20. Compounds were diluted in assay buffer containing 4% dimethylsulfoxide (DMSO) just prior to the assay. […] The kinase reaction was initiated by adding 2 μL of 5 mM ATP (Sigma) in assay buffer. The final concentrations in the assay were 10 nM c-fms, 1 mM ATP, 5 mM MgCl2, 2% DMSO. Control reactions were ran in each plate: in positive and negative control wells, assay buffer (made 4% in DMSO) was substituted for the compound; in addition, positive control wells received 1.2 μL of 50 mM ethylenediaminetetraaceticacid (EDTA).
The plates were incubated at room temperature for 45 min. At the end of the incubation, the reaction was quenched with 1.2 μL of 50 mM EDTA (EDTA was not added to the positive control wells at this point; see above). Following a 5-min incubation, each well received 10 μL of a 1:1:3 mixture of anti-phosphotyrosine antibody, 10×, PTK green tracer, 10× (vortexed), FP dilution buffer, respectively (all from PanVera, cat. # P2837). The plate was covered, incubated for 30 min at room temperature and the fluorescence polarization was read on the Analyst.
The IC50 values shown in Table 1 are averages of three independent measurements.

CSF-1R = CSF-1R (Homo sapiens, UniProt P07333); assay: Peptide (non-phosphorylated) assay: fluorescence polarization competition immunoassay of CSF-1R phosphorylation of synthetic CSF-1R555-568 peptide; format: biochemical; details: 0.7 nM CSF-1R, 308 μM […], 1 mM ATP, 5 mM MgCl2, 80 min room temperature; mean of at least three determinations; read-out: c-fms Peptide IC50
Procedure: Peptide (Non-Phosphorylated) Assay
The kinase reaction was initiated by adding 1 μL of 10 mM ATP in assay buffer. […] Positive and negative control wells were included on each plate, where 4% DMSO in assay buffer was substituted for the compound; in addition, positive control wells received 1.2 μL of 50 mM EDTA before the start of the reaction.
The plates were covered and incubated at room temperature for 80 min. Reactions were stopped by addition of 1.2 μL of 50 mM EDTA. Each well then received 10 μL of a 1:1:3 mixture of 10× anti-phosphotyrosine antibody, 10×PTK green tracer, and FP dilution buffer, respectively (Cat. # P2837, Invitrogen, Carlsbad, Calif.). The plates were covered, incubated for 30 min at room temperature, and the fluorescence polarization was read on an Analyst plate reader (Molecular Devices).

Chain of c-fms (P07333 20-972): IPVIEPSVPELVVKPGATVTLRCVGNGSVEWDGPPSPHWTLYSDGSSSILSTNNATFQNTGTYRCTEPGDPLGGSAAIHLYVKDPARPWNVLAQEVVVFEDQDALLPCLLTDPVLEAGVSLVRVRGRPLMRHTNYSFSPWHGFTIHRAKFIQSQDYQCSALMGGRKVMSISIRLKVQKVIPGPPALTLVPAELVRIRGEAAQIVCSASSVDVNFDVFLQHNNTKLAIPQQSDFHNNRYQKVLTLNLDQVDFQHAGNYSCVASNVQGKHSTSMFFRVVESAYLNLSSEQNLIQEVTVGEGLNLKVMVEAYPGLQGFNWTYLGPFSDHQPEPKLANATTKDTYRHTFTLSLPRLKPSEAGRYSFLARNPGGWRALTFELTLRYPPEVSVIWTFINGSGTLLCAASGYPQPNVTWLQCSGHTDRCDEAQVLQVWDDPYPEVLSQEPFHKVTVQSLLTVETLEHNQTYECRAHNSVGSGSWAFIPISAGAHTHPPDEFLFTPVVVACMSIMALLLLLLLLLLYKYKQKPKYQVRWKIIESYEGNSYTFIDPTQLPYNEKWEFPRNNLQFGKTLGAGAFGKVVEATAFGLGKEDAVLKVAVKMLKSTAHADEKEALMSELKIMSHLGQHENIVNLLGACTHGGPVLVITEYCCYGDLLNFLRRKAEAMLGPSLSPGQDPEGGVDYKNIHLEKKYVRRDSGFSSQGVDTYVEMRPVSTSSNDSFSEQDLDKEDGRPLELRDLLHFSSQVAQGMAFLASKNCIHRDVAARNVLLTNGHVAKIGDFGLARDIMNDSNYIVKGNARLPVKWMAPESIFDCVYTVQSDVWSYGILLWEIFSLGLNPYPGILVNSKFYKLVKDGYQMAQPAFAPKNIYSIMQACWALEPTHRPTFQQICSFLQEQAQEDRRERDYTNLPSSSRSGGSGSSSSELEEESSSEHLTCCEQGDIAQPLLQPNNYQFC
Chain of CSF-1R (P07333 20-972): as above

Structure (SMILES)	IC50 (c-fms) [nM]	IC50 (CSF-1R) [nM]
CN1CCN(c2ccc(Nc3ncc4c(=O)c(C(N)=O)cn(-c5ccc6c(c5)CCC6)c4n3)cc2)CC1 [Cpd 7, 8-Indan-5-yl-2-[4-(4-methyl-piperazin-1-yl)-phenylamino]-5-oxo-5,8-dihydro-pyrido[2,3-d]pyrimidine-6-carboxylic acid amide]	13	3.9
CN(C)CC(O)COc1ccc(Nc2ncc3c(=O)c(C(N)=O)cn(-c4ccc5c(c4)CCC5)c3n2)cc1 (centres unmarked) [Cpd 10, 2-[4-(3-Dimethylamino-2-hydroxy-propoxy)-phenylamino]-8-indan-5-yl-5-oxo-5,8-dihydro-pyrido[2,3-d]pyrimidine-6-carboxylic acid amide]	13	2.7
CNC(=O)c1cn(-c2ccc3c(c2)CCC3)c2nc(Nc3ccc(OCC(O)CN(C)C)cc3)ncc2c1=O (centres unmarked) [Cpd 11, 2-[4-(3-Dimethylamino-2-hydroxy-propoxy)-phenylamino]-8-indan-5-yl-5-oxo-5,8-dihydro-pyrido[2,3-d]pyrimidine-6-carboxylic acid methylamide]	46	5.6
CN(C)c1cccc(Nc2ncc3c(=O)c(C(N)=O)cn(-c4ccc5c(c4)CCC5)c3n2)c1 [Cpd 16, 2-(3-Dimethylamino-phenylamino)-8-indan-5-yl-5-oxo-5,8-dihydro-pyrido[2,3-d]pyrimidine-6-carboxylic acid amide]	12	4.3
CN1CCN(Cc2cccc(Nc3ncc4c(=O)c(C(N)=O)cn(-c5ccc6c(c5)CCC6)c4n3)c2)CC1 [Cpd 23, 8-Indan-5-yl-2-[3-(4-methyl-piperazin-1-ylmethyl)-phenylamino]-5-oxo-5,8-dihydro-pyrido[2,3-d]pyrimidine-6-carboxylic acid amide]	14	1.5
CNC(=O)c1cn(-c2ccc3c(c2)CCC3)c2nc(Nc3ccc(CCN4CCOCC4)cc3)ncc2c1=O [Cpd 28, 8-Indan-5-yl-2-[4-(2-morpholin-4-yl-ethyl)-phenylamino]-5-oxo-5,8-dihydro-pyrido[2,3-d]pyrimidine-6-carboxylic acid methyl amide]	30	1.6
CC1CN(c2ccc(Nc3ncc4c(=O)c(C(N)=O)cn(-c5ccc6c(c5)CCC6)c4n3)cc2)CC(C)N1 (centres unmarked) [Cpd 43, 2-[4-(3,5-Dimethyl-piperazin-1-yl)-phenylamino]-8-indan-5-yl-5-oxo-5,8-dihydro-pyrido[2,3-d]pyrimidine-6-carboxylic acid amide]	–	0.58
CNC(=O)c1cn(-c2ccc3c(c2)CCC3)c2nc(Nc3ccc(N4CC(C)NC(C)C4)cc3)ncc2c1=O (centres unmarked) [Cpd 44, 2-[4-(3,5-Dimethyl-piperazin-1-yl)-phenylamino]-8-indan-5-yl-5-oxo-5,8-dihydro-pyrido[2,3-d]pyrimidine-6-carboxylic acid methyl amide]	8	0.53
CNC(=O)c1cn(-c2ccc3c(c2)CCC3)c2nc(Nc3ccc(CCN4CCN(C)CC4)cc3)ncc2c1=O [Cpd 47, 8-Indan-5-yl-2-{4-[2-(4-methyl-piperazin-1-yl)-ethyl]-phenylamino}-5-oxo-5,8-dihydro-pyrido[2,3-d]pyrimidine-6-carboxylic acid methyl amide]	15	1.3
NC(=O)c1cn(-c2ccc3c(c2)CCC3)c2nc(Nc3ccc(C4CCNCC4)cc3)ncc2c1=O [Cpd 49, 8-Indan-5-yl-5-oxo-2-(4-piperidin-4-yl-phenylamino)-5,8-dihydro-pyrido[2,3-d]pyrimidine-6-carboxylic acid amide]	8	0.49
CNC(=O)c1cn(-c2ccc3c(c2)CCC3)c2nc(Nc3ccc(C4CCNCC4)cc3)ncc2c1=O [Cpd 50, 8-Indan-5-yl-5-oxo-2-(4-piperidin-4-yl-phenylamino)-5,8-dihydro-pyrido[2,3-d]pyrimidine-6-carboxylic acid methyl amide]	15	0.97
NC(=O)c1cn(-c2ccc3c(c2)CCC3)c2nc(Nc3cccc(N4CCNCC4)c3)ncc2c1=O [Cpd 52, 8-Indan-5-yl-5-oxo-2-(3-piperazin-1-yl-phenylamino)-5,8-dihydro-pyrido[2,3-d]pyrimidine-6-carboxylic acid amide]	5	0.42
CNC(=O)c1cn(-c2ccc3c(c2)CCC3)c2nc(Nc3cccc(N4CCNCC4)c3)ncc2c1=O [Cpd 53, 8-Indan-5-yl-5-oxo-2-(3-piperazin-1-yl-phenylamino)-5,8-dihydro-pyrido[2,3-d]pyrimidine-6-carboxylic acid methyl amide]	8	0.46
CCNC(=O)c1cn(-c2ccc3c(c2)CCC3)c2nc(Nc3cccc(N4CCNCC4)c3)ncc2c1=O [Cpd 54, 8-Indan-5-yl-5-oxo-2-(3-piperazin-1-yl-phenylamino)-5,8-dihydro-pyrido[2,3-d]pyrimidine-6-carboxylic acid ethyl amide]	11	1.1
CC1CN(c2cccc(Nc3ncc4c(=O)c(C(N)=O)cn(-c5ccc6c(c5)CCC6)c4n3)c2)CC(C)N1 (centres unmarked) [Cpd 55, 2-[3-(3,5-Dimethyl-piperazin-1-yl)-phenylamino]-8-indan-5-yl-5-oxo-5,8-dihydro-pyrido[2,3-d]pyrimidine-6-carboxylic acid amide]	6	0.51
CNC(=O)c1cn(-c2ccc3c(c2)CCC3)c2nc(Nc3cccc(N4CC(C)NC(C)C4)c3)ncc2c1=O (centres unmarked) [Cpd 56, 2-[3-(3,5-Dimethyl-piperazin-1-yl)-phenylamino]-8-indan-5-yl-5-oxo-5,8-dihydro-pyrido[2,3-d]pyrimidine-6-carboxylic acid methyl amide]	10	1.1
CN1CCN(c2ccc(Nc3ncc4c(=O)c(C(N)=O)cn(C5CC6CCC5C6)c4n3)cc2)CC1 (centres unmarked) [Cpd 82, 8-Bicyclo[2.2.1]hept-2-yl-2-[4-(4-methyl-piperazin-1-yl)-phenylamino]-5-oxo-5,8-dihydro-pyrido[2,3-d]pyrimidine-6-carboxylic acid amide]	81	–
CCNC(=O)c1cn(C2CC3CCC2C3)c2nc(Nc3ccc(N4CCN(C)CC4)cc3)ncc2c1=O (centres unmarked) [Cpd 83, 8-Bicyclo[2.2.1]hept-2-yl-2-[4-(4-methyl-piperazin-1-yl)-phenylamino]-5-oxo-5,8-dihydro-pyrido[2,3-d]pyrimidine-6-carboxylic acid ethylamide]	300	–
CCNC(=O)c1cn(-c2ccc3c(c2)CCC3)c2nc(Nc3ccc(CN4CCN(C)CC4)cc3)ncc2c1=O [Cpd 84, 8-Indan-5-yl-2-[4-(4-methyl-piperazin-1-ylmethyl)-phenylamino]-5-oxo-5,8-dihydro-pyrido[2,3-d]pyrimidine-6-carboxylic acid ethylamide]	32	–
CNC(=O)c1cn(Cc2ccccc2)c2nc(Nc3ccc(N4CCN(C)CC4)cc3)ncc2c1=O [Cpd 85, 8-Benzyl-2-[4-(4-methyl-piperazin-1-yl)-phenylamino]-5-oxo-5,8-dihydro-pyrido[2,3-d]pyrimidine-6-carboxylic acid methylamide]	420	–
